According to patent US10874743B2, “IRAK degraders and uses thereof” (Kymera Therapeutics, Inc., priority 2017, dated 2020):

Tests used:
OCI-LY10 cells = assay: OCI-LY-10 CTG cell viability assay (EC50); assay type: cell-based; details: Homo sapiens, 96 h, CellTiter-Glo cell viability, 4 days incubation, top concentration 10 μM, read-out: OCI-LY10 IRAK4 EC50
Description: A CTG cell viability assay using OCI-LY-10 cells was run to determine compound-mediated cell viability (EC50).
Compound-mediated viability effect on OCI-LY10 was quantitatively determined using the CellTiter-Glo® Luminescent Cell Viability Assay kit from Promega (Catalog number G7570) following manufacturer's recommended procedures. […] Compounds were then added to the assay plate with final top concentration of 10 μM and 1:3 dilution series with total of 9 doses. The final DMSO concentration was normalized to 0.2%. The assay plates were incubated at 37° C. for 4 days under 5% CO2. Then the assay plate was equilibrated at room temperature for 10 minutes. […] The data was then analyzed by software Prism 7.0 from GraphPad and the dose response curves were fit using a three-parameter logistic equation to calculate EC50.

IRAK4 = target: T1, IRAK4 (Homo sapiens, UniProt Q9NWZ3); assay: OCI-LY-10 MSD assay for IRAK4 DC50; assay type: cell-based; set-up: endogenous in cells; host or cells: OCI-LY10; details: OCI-LY10 cells, 4 hr incubation, concentration required to degrade 50% of protein
T1 sequence (Q9NWZ3 1-460): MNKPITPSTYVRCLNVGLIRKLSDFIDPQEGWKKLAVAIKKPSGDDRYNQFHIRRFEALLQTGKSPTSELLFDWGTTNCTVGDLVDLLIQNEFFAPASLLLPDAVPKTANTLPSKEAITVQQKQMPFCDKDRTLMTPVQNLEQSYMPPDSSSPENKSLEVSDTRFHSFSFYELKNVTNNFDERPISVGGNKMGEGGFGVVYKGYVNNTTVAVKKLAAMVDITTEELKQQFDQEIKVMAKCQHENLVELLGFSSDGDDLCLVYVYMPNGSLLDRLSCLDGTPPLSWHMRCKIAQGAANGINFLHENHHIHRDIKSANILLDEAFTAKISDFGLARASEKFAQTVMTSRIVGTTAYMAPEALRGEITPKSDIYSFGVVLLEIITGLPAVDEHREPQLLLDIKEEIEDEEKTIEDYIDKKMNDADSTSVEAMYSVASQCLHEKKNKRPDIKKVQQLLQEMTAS
In short: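 IRAK4 level was quantified by MSD electrochemiluminescence (anti-IRAK4 capture antibody, rabbit anti-IRAK4 detection antibody) in RIPA lysates of OCI-Ly10 cells. Cells had been treated with compound for 4 hr (8-point, 3-fold serial dilution). Remaining protein versus concentration was fitted to a sigmoidal curve to give DC50.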

Row | EC50 (OCI-LY10 cells) | DC50 (IRAK4) | SMILES
1 | 50 to 100 nM | < 50 nM | CN(C[C@H]1CN(CCCc2ccc3c(c2)n(C)c(=O)n3C2CCC(=O)NC2=O)CCO1)C(=O)c1ccc(-n2cc(NC(=O)c3coc(-c4ccnc(NCC(F)(F)F)c4)n3)c(C(F)F)n2)cc1 (stereo partly drawn) [I-487]
2 | < 50 nM | < 50 nM | O=C1CCC(n2c(=O)oc3c(CCCOCCOCCNCc4ccc(-n5cc(NC(=O)c6coc(-c7ccnc(NCC8CC8)c7)n6)c(C(F)F)n5)cc4)cccc32)C(=O)N1 (stereo not drawn) [I-551]
3 | < 50 nM | < 50 nM | O=C1CCC(N2C[C@H](c3ccc(C#CCN4CCO[C@@H](CNC(=O)c5ccc(-n6cc(NC(=O)c7coc(-c8ccnc(NCC9CC9)c8)n7)c(C(F)F)n6)cc5)C4)cc3)OC2=O)C(=O)N1 (stereo partly drawn) [I-509]
4 | > 1000 nM | 500 to 1000 nM | CN[C@@H](C)C(=O)N[C@H](C(=O)N1CCC[C@H]1c1nc(C(=O)c2cccc(OCCOCCOCCOCCOCCOCCNCc3ccc(-n4cc(NC(=O)c5coc(-c6ccnc(NCC7CC7)c6)n5)c(C(F)F)n4)cc3)c2)cs1)C1CCCCC1 [I-553]
5 | < 50 nM | < 50 nM | Cn1c(=O)n(C2CCC(=O)NC2=O)c2ccc(CNC(=O)COCCNCc3ccc(-n4cc(NC(=O)c5coc(-c6ccnc(NCC7CC7)c6)n5)c(C(F)F)n4)cc3)cc21 (stereo not drawn) [I-543]
6 | 100 to 500 nM | 50 to 100 nM | Cn1c(=O)n(C2CCC(=O)NC2=O)c2ccc(CCCN3CCO[C@@H](CNCc4ccc(-n5cc(NC(=O)c6coc(-c7ccnc(NCC(F)(F)F)c7)n6)c(C(F)F)n5)cc4)C3)cc21 (stereo partly drawn) [I-614]
7 | > 1000 nM | 100 to 500 nM | Cn1c(=O)n(C2CCC(=O)NC2=O)c2ccc(N3CCN(CCOCCNCc4ccc(-n5cc(NC(=O)c6coc(-c7ccnc(NCC(F)(F)F)c7)n6)c(C(N)=O)n5)cc4)CC3)cc21 (stereo not drawn) [I-564]
8 | < 50 nM | < 50 nM | O=C1CCC(n2c(=O)oc3cc(CCCOCCOCCNC(=O)c4ccc(-n5cc(NC(=O)c6coc(-c7ccnc(NCC8CC8)c7)n6)c(C(F)F)n5)cc4)ccc32)C(=O)N1 (stereo not drawn) [I-462]
9 | > 1000 nM | > 1000 nM | Cn1cc(NC(=O)c2coc(-c3ccnc(NCC(F)(F)F)c3)n2)c(-c2cncc(C(=O)NCCOCCOCCCc3cccc4c3n(C)c(=O)n4C3CCC(=O)NC3=O)c2)n1 (stereo not drawn) [I-472]
10 | 100 to 500 nM | 50 to 100 nM | CC(C)(CCOCCCc1cccc2c1oc(=O)n2C1CCC(=O)NC1=O)NC(=O)c1ccc(-n2cc(NC(=O)c3coc(-c4ccnc(NCC5CC5)c4)n3)c(C(F)F)n2)cc1 (stereo not drawn) [I-478]
11 | < 50 nM | < 50 nM | CN(C[C@@H]1CN(CCCc2cccc3c2n(C)c(=O)n3C2CCC(=O)NC2=O)CCO1)C(=O)c1ccc(-n2cc(NC(=O)c3coc(-c4ccnc(NCC5CC5)c4)n3)c(C(F)F)n2)cc1 (stereo partly drawn) [I-514]
12 | > 1000 nM | 100 to 500 nM | NC(=O)c1nn(-c2ccc(CNCCOCCOCCOC(=O)NCc3ccc4c(c3)CN(C3CCC(=O)NC3=O)C4=O)cc2)cc1NC(=O)c1coc(-c2ccnc(NCC(F)(F)F)c2)n1 (stereo not drawn) [I-579]
13 | < 50 nM | 100 to 500 nM | Cn1c(=O)n([C@H]2CCC(=O)NC2=O)c2ccc(CCCCOCCCCNCc3ccc(-n4cc(NC(=O)c5coc(-c6ccnc(NCC7CC7)c6)n5)c(C(F)F)n4)cc3)cc21 (single isomer, unassigned) [I-699]
14 | < 50 nM | < 50 nM | Cn1c(=O)n(C2CCC(=O)NC2=O)c2cccc(CCCOCCNCc3ccc(-n4cc(NC(=O)c5coc(-c6ccnc(NCC7CC7)c6)n5)c(C(F)F)n4)cc3)c21 (stereo not drawn) [I-530]
15 | < 50 nM | < 50 nM | O=C1CCC(n2c(=O)n(CCOCCOCCNCc3ccc(-n4cc(NC(=O)c5coc(-c6ccnc(NCC7CC7)c6)n5)c(C(F)F)n4)cc3)c3ccccc32)C(=O)N1 (stereo not drawn) [I-552]
16 | > 1000 nM | > 1000 nM | CN(CC(=O)N(C)CC(=O)N(C)CC(=O)N(C)CCCc1cccc2c1n(C)c(=O)n2C1CCC(=O)NC1=O)Cc1nn(C)cc1NC(=O)c1coc(-c2ccnc(NCC(F)(F)F)c2)n1 (stereo not drawn) [I-525]

Row | EC50 (OCI-LY10 cells) | DC50 (IRAK4) | SMILES
17 | < 50 nM | < 50 nM | CN(CC[C@H]1CN(CCCc2ccc3c(c2)n(C)c(=O)n3C2CCC(=O)NC2=O)CCO1)Cc1ccc(-n2cc(NC(=O)c3coc(-c4ccnc(NCC5CC5)c4)n3)c(C(F)F)n2)cc1 (stereo partly drawn) [I-592]
18 | > 1000 nM | < 50 nM | Cn1c(=O)n(C2CCC(=O)NC2=O)c2ccc(CCCOCCCNCc3ccc(-n4cc(NC(=O)c5coc(-c6ccnc(NCC(F)(F)F)c6)n5)c(C(F)F)n4)cc3)cc21 (stereo not drawn) [I-534]
19 | < 50 nM | 100 to 500 nM | CN(Cc1ccc(-n2cc(NC(=O)c3coc(-c4ccnc(NCC5CC5)c4)n3)c(C(F)F)n2)cc1)C[C@@H]1CN(CCCc2ccc3c(c2)n(C)c(=O)n3C2CCC(=O)NC2=O)CCO1 (stereo partly drawn) [I-599]
20 | 100 to 500 nM | < 50 nM | NC(=O)c1nn(-c2ccc(CNCCOCCOCCCc3ccc4c(c3)oc(=O)n4C3CCC(=O)NC3=O)cc2)cc1NC(=O)c1coc(-c2ccnc(NCC(F)(F)F)c2)n1 (stereo not drawn) [I-568]
21 | < 50 nM | < 50 nM | CN(CCCOCCCc1ccc2c(c1)n(C)c(=O)n2C1CCC(=O)NC1=O)C(=O)c1ccc(-n2cc(NC(=O)c3coc(-c4ccnc(NCC5CC5)c4)n3)c(C(F)F)n2)cc1 (stereo not drawn) [I-477]
22 | < 50 nM | < 50 nM | Cn1c(=O)n(C2CCC(=O)NC2=O)c2ccc(CCCOCCOCCNC(=O)c3ccc(-n4cc(NC(=O)c5coc(-c6ccnc(NCC7CC7)c6)n5)c(C(F)F)n4)cn3)cc21 (stereo not drawn) [I-461]
23 | < 50 nM | < 50 nM | O=C1CCC(n2c(=O)oc3c(CCCOCCCNCc4ccc(-n5cc(NC(=O)c6coc(-c7ccnc(NCC8CC8)c7)n6)c(C(F)F)n5)cc4)cccc32)C(=O)N1 (stereo not drawn) [I-548]
24 | < 50 nM | < 50 nM | CN(C[C@H]1CN(CCCc2cccc3c2n(C)c(=O)n3C2CCC(=O)NC2=O)CCO1)C(=O)c1ccc(-n2cc(NC(=O)c3coc(-c4ccnc(NCC5CC5)c4)n3)c(C(F)F)n2)cc1 (stereo partly drawn) [I-513]
25 | 50 to 100 nM | < 50 nM | O=C1CCC(N2C[C@H](c3cccc(C#CCN4CCO[C@@H](CNCc5ccc(-n6cc(NC(=O)c7coc(-c8ccnc(NCC9CC9)c8)n7)c(C(F)F)n6)cc5)C4)c3)OC2=O)C(=O)N1 (stereo partly drawn) [I-584]
26 | > 1000 nM | 500 to 1000 nM | CN[C@@H](C)C(=O)N[C@H](C(=O)N1CCC[C@H]1c1nc(C(=O)c2cccc(OCCOCCOCCOCCOCCNCc3ccc(-n4cc(NC(=O)c5coc(-c6ccnc(NCC7CC7)c6)n5)c(C(F)F)n4)cc3)c2)cs1)C1CCCCC1 [I-555]
27 | < 50 nM | < 50 nM | Cn1c(=O)n(C2CCC(=O)NC2=O)c2ccc(CCCNCC3COC4C(CNCc5ccc(-n6cc(NC(=O)c7coc(-c8ccnc(NCC9CC9)c8)n7)c(C(F)F)n6)cc5)COC34)cc21 (stereo not drawn) [I-537]
28 | < 50 nM | < 50 nM | Cn1c(=O)n(C2CCC(=O)NC2=O)c2cccc(CCCNCC3COC4C(CNCc5ccc(-n6cc(NC(=O)c7coc(-c8ccnc(NCC(F)(F)F)c8)n7)c(C(F)F)n6)cc5)COC34)c21 (stereo not drawn) [I-536]
29 | > 1000 nM | 500 to 1000 nM | CN[C@@H](C)C(=O)N[C@H](C(=O)N1CCC[C@H]1c1nc(C(=O)c2cccc(OCCOCCOCCNCc3ccc(-n4cc(NC(=O)c5coc(-c6ccnc(NCC7CC7)c6)n5)c(C(F)F)n4)cc3)c2)cs1)C1CCCCC1 [I-556]
30 | < 50 nM | < 50 nM | O=C1CCC(n2c(=O)oc3cc(CCCOCCCNCc4ccc(-n5cc(NC(=O)c6coc(-c7ccnc(NCC8CC8)c7)n6)c(C(F)F)n5)cc4)ccc32)C(=O)N1 (stereo not drawn) [I-549]
31 | < 50 nM | < 50 nM | Cn1c(=O)n(C2CCC(=O)NC2=O)c2ccc(CCCN3CCO[C@H](CCNCc4ccc(-n5cc(NC(=O)c6coc(-c7ccnc(NCC(F)(F)F)c7)n6)c(C(N)=O)n5)cc4)C3)cc21 (stereo partly drawn) [I-576]
32 | 50 to 100 nM | < 50 nM | C=C1N(C)c2c(CCCOCCCN(C)C(=O)c3ccc(-n4cc(NC(=O)c5coc(-c6ccnc(NCC7CC7)c6)n5)c(C(F)F)n4)cc3)cccc2N1C1CCC(=O)NC1=O (stereo not drawn) [I-473]

Row | SMILES | EC50 (OCI-LY10 cells) | DC50 (IRAK4)
33 | CN[C@@H](C)C(=O)N[C@H](C(=O)N1Cc2cc(OCCOCCOCCOCCOCCOCCNC(=O)c3ccc(-n4cc(NC(=O)c5coc(-c6ccnc(NCC7CC7)c6)n5)c(C(F)F)n4)cc3)ccc2C[C@H]1C(=O)N[C@@H]1CCCc2ccccc21)C(C)(C)C [I-520, 2-[2-(Cyclopropylmethylamino)-4-pyridyl]-N-[3-(difluoromethyl)-1-[4-[2-[2-[2-[2-[2-[2-[[(3S)-2-[(2S)-3,3-dimethyl-2-[[(2S)-2-(methylamino)propanoyl]amino]butanoyl]-3-[[(1R)-tetralin-1-yl]carbamoyl]-3,4-dihydro-1H-isoquinolin-7-yl]oxy]ethoxy]ethoxy]ethoxy]ethoxy]ethoxy]ethylcarbamoyl]phenyl]-pyrazol-4-yl]oxazole-4-carboxamide] | > 1000 nM | 500 to 1000 nM
